This is an account of results in US5929063A, “Mercapto and seleno derivatives as inhibitors of nitric oxide synthase” (priority 1995, dated 1999).

Where two headings read alike, the source gives them in different places.

In one series the target is T1, ecNOS (Bos taurus, UniProt P29473).
T1 construct: the intimal surface of fresh bovine aortae was scraped and homogenized; from tissue; host or cells: homogenate of intimal scrapings of fresh bovine aortae
The series can be described thus: ecNOS activity from intimal scrapings of fresh bovine aortae (conversion of [3H]-L-arginine to [3H]-L-citrulline). It is filed as biochemical. The method, then: The intimal surface of fresh bovine aortae was scraped in the presence of homogenation buffer composed of 50 mM Tris-HCl, 0.1 mM ethylenediamine tetraacetic acid (EDTA) and 0.1 mM ethyleneglycol bis (beta-aminoethyl ether) (EGTA). Conversion of [^3 H]-L-arginine to [^3 H]-L-citrulline was measured in the homogenates as follows: cell homogenate (50 μl) was incubated in the presence of [^3 H]-L-arginine (10 μM, 5 kBq/tube), NADPH (2 mM), calmodulin (30 nM), tetrahydrobiopterin (5 μM) and calcium (2 mM) for 20 minutes at 37° C. in N-2-hydroxethyl piperazine-N-2-ethane sulfonic acid (HEPES) buffer (pH 7.5). Reactions were stopped by dilution with 1 ml of ice cold HEPES buffer (pH 5.5) containing EGTA (2 mM) and EDTA (2 mM). Reaction mixtures were applied to Dowex 50W (Na^+ form) columns and the eluted [^3 H]-L-citrulline activity was measured by scintillation counting. bNOS activity was measured using similar methods in homogenates of whole rat brains.
For a preparation rich in ecNOS, the intimal surface of fresh bovine aortae was scraped and homogenized. The homogenization buffer was composed of 50 mM tris-HCL, 0.1 mM EDTA, 0.1 mM EGTA and 1 mM phenylmethylsulfonyl chloride (pH 7.4). Cell suspensions were homogenized in the homogenization buffer on ice using a Tissue Tearor 985-370 homogenizer (BioSpec Products, Racine, Wis.). Conversion of [^3 H]-L-arginine to [^3 H]-L-citrulline was measured in the homogenates as described in Example 3 above.

For the next series, the target named is iNOS (Rattus norvegicus, UniProt Q06518). The series can be described thus: Inhibition of iNOS activity in tissue homogenates (Table 2). In kind it is biochemical. On the set-up: bNOS in tissue homogenates; from tissue; host or cells: tissue homogenate. The following applies: iNOS (Table 2).
Series [1] concerns J774 macrophages. The series can be described thus: Nitrite production by immunostimulated J774 macrophages (endotoxin 24 h, Griess). In kind it is cell-based, mouse. The following applies: Mus musculus, read-out: EC50 for the inhibition of nitrite production by stimulated J774 macrophages. The method, then:
(§1) This example illustrates the effect of selected mercapto derivatives on endotoxin-induced nitrite formation in J774.2 macrophages and on IL-1 gamma-interferon induced nitrite formation in cultured rat arctic smooth muscle cells. J774 macrophage cell lines were obtained from the American Type Culture Collection (ATCC) and were grown using standard methods in Dulbecco's Modified Eagle Medium (DMEM) supplemented with 10% fetal bovine serum, glutamine, penicillin (10,000 U/l) and streptomycin (10,000 U/l). Rat aortic smooth muscle cells (RASM) from Wistar rats were isolated by enzymatic dissociation using standard methods. The cells were positively identified as smooth muscle by indirect immunofluorescent staining for a-actin, using mouse anti-α-actin antibody and anti-mouse IgG fluorescein isothiocyanate (FITC) conjugate. RASM cells were grown in T-75 tissue culture flasks in 50% F12 nutrient medium and 50% Dulbecco's Modified Eagle Medium supplemented with 10% fetal bovine serum, glutamine, penicillin (10,000 U/l) and streptomycin (10,000 U/l). Cells were grown in 96-well plates for measure of nitrite production and cell viability. J774 macrophages were treated with endotoxin (10 μg/ml) for 24 hours; smooth muscle cells were treated with IL-1 (100 U/ml) and gamma-interferon (50 U/ml) for 48 hours.
Concentration of nitrite, the degradation product of NO in the culture medium, was determined by mixing equal volumes of medium with the Griess reagent (1% sulfanilamide/0.1% naphthylethylenediamine dihydrochloride/2.5% H3 PO4). The mixture was incubated for 10 minutes at room temperature to form the chromophore, then optical densities (OD) were determined at 550 nm (OD550). NaNO2 was used as the standard. Spectrophotometric measurements were performed in a dual-wavelength spectrophotometer.
In general terms: The Griess reaction detects nitrite, a stable product of nitric oxide.

For series [2], the system named is constitutive and inducible NOS isoforms. The following applies: background literature; cited from earlier work.
In the next series the target is T2, bNOS (Rattus norvegicus, UniProt P29476).
T2 construct: bNOS activity was measured using similar methods in homogenates of whole rat brains; from tissue; host or cells: homogenate of whole rat brains
Description: bNOS activity in homogenates of whole rat brains. It is filed as biochemical.

Series [3] deals with J774 macrophages. The series can be described thus: Mitochondrial respiration (MTT reduction), cell viability of immunostimulated J774 macrophages. It is filed as cell-based, mouse. The method, then:
as §1
Mitochondrial respiration, an indicator of cell viability, was assessed by the mitochondrial-dependent reduction of MTT [3-(4,5-dimethylthiazol-2-yl)-2,5-diphenyltetrazolium bromide] to formazan. Cells in 96-well plates were incubated (37° C.) with MTT (0.2 mg/ml for 60 minutes). Culture medium was removed by aspiration and the cells solubilized in dimethylsulfoxide (DMSO) (100 μl). The extent of reduction of MTT to formazan within cells was quantitated by measurement of OD550 using a microplate reader. The calibration curve for the reduction of MTT to formazan was prepared in DMSO. Formazan production by cells was expressed as a percentage of the values obtained from untreated cells.

Where [4] appears, read: ecNOS (Table 2), read-out: EC50 for inhibition of ecNOS activity in tissue homogenates.
[5] abbreviates: J774, endotoxin 10 μg/ml, 24 h (Table 1).

iNOS, sequence (Q06518 whole entry): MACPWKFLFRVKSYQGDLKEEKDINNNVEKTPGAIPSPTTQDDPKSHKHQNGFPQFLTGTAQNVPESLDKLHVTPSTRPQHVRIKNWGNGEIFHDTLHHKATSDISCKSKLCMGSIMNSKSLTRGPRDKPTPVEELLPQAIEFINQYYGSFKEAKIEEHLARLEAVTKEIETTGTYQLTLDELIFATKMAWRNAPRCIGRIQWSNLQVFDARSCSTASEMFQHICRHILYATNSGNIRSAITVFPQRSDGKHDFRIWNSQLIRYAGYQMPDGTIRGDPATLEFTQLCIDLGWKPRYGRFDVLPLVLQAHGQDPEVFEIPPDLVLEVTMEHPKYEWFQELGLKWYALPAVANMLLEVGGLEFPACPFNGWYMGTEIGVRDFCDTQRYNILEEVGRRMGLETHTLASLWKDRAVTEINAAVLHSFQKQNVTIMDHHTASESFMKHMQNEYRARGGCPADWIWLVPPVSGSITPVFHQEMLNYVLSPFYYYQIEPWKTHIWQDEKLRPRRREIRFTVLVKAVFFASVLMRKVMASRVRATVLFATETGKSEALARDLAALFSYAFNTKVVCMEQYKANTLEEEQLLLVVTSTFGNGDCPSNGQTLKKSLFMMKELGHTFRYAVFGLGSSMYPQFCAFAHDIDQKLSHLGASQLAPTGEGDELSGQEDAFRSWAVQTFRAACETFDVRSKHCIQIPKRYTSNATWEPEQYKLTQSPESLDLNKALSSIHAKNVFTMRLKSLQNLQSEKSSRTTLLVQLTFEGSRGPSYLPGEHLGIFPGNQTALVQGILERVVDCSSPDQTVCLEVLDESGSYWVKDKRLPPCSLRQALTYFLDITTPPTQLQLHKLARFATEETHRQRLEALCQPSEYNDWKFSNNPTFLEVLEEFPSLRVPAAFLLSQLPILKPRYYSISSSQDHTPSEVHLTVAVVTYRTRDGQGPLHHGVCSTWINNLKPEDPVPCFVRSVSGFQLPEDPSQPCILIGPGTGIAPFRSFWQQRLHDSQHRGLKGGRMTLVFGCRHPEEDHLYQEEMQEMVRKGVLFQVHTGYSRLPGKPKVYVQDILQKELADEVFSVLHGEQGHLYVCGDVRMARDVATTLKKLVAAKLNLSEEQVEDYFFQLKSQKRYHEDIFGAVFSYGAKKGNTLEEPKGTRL
T2 sequence (P29476 whole entry): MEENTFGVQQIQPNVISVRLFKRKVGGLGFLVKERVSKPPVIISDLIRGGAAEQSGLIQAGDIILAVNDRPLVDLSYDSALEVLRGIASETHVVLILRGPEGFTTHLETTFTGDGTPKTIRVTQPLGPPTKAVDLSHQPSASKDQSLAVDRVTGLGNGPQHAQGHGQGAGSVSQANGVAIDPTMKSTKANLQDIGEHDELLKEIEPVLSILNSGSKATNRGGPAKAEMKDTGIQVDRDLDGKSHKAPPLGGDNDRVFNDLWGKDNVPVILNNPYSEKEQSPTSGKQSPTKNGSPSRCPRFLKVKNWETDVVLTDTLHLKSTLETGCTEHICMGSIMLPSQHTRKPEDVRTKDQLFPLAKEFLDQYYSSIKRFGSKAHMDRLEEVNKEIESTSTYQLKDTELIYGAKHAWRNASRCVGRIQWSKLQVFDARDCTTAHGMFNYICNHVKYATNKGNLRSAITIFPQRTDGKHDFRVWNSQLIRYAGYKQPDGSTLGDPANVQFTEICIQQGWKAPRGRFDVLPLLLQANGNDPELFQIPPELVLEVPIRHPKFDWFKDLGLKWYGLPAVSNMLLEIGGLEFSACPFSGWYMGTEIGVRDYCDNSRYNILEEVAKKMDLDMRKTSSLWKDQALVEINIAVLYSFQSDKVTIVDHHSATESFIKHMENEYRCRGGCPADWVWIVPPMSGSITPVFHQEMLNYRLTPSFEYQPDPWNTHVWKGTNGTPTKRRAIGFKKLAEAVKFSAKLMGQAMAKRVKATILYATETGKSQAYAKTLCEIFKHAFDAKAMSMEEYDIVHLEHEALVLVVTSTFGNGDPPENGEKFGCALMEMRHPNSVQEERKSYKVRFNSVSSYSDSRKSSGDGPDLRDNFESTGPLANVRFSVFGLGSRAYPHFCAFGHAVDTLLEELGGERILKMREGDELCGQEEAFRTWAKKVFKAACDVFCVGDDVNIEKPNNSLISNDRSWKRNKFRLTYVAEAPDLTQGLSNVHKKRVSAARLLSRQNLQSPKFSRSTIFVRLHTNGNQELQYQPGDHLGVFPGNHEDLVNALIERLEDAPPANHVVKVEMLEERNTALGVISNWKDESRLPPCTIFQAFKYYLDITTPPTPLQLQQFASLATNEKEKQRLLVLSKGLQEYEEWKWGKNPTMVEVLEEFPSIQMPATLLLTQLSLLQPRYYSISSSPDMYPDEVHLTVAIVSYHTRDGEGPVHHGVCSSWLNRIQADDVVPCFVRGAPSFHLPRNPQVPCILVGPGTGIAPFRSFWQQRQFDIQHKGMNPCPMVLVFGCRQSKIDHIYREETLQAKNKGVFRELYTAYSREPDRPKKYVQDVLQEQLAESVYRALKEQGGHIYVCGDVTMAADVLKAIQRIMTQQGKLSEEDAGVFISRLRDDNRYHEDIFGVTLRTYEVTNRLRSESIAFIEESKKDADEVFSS

One may read the EC50 as the concentration needed to bring the measured effect to its halfway point. For the molecule `N=C(N)NN` [Aminoguanidine, reference compound], the EC50 worked out at 2600 µM on ecNOS (setting [4]); 80 µM at iNOS; 120 µM in the series with J774 macrophages [1] (J774, 24 h); 220 µM on bNOS (bNOS (Table 2), read-out: EC50 for inhibition of bNOS activity in tissue homogenates). In addition, in series [2], the “NOS inhibition / isoform selectivity, in words” value is given as “selectively inhibit the inducible isoform of nitric oxide synthase”.

Turning to `COC(=O)[C@@H](N)CCCNC(=N)N[N+](=O)[O-]` [L-NAME, NG-nitro-L-arginine methyl ester, reference compound], the 50% effective concentration (EC50) on ecNOS (n=6, bovine aorta, read-out: EC50, dose dependent inhibition of ecNOS activity) was found to be 2 µM. In addition, in series [2], the “NOS inhibition / isoform selectivity, in words” value is “inhibit both the constitutive and the inducible NOS isoforms to a similar extent”.

Regarding `N=C(N)NCCS` [MEG, mercaptoethylguanidine], the EC50 at ecNOS (setting [4]) is 110 µM; on iNOS it was 11.5 µM; in the series on J774 macrophages [1] (setting [5]), 13 µM; on bNOS, 60 µM. The values for the cellular viability result with J774 macrophages [3] (1 mM) and in the series on J774 macrophages [3] (effective doses 1-100 μM) were “a slight reduction in viability was observed” and “did not decrease cellular viability”, respectively.

As for `N=C(N)NCCCS` [MPG, mercaptopropylguanidine], the EC50 on ecNOS (setting [4]) is 4 µM; on iNOS it was 7 µM; in the series on J774 macrophages [1] (setting [5]) it was 15 µM; on bNOS it was 80 µM. Also, the cellular viability result was “a slight reduction in viability was observed” with J774 macrophages [3] (1 mM) and “did not decrease cellular viability” in the series on J774 macrophages [3] (effective doses 1-100 μM).
